Measurements from patent US5149779A, “Humoral hypercalcemic factor antagonists” (Merck & Co., Inc., priority 1990, dated 1992).

Molecular target: T1, human osteosarcoma cell line, B10 (Homo sapiens, UniProt Q03431)
T1 construct: analyzed in a human osteosarcoma cell line, B10; endogenous in cells; host or cells: human osteosarcoma cell line B10
T1 sequence (Q03431 27-593): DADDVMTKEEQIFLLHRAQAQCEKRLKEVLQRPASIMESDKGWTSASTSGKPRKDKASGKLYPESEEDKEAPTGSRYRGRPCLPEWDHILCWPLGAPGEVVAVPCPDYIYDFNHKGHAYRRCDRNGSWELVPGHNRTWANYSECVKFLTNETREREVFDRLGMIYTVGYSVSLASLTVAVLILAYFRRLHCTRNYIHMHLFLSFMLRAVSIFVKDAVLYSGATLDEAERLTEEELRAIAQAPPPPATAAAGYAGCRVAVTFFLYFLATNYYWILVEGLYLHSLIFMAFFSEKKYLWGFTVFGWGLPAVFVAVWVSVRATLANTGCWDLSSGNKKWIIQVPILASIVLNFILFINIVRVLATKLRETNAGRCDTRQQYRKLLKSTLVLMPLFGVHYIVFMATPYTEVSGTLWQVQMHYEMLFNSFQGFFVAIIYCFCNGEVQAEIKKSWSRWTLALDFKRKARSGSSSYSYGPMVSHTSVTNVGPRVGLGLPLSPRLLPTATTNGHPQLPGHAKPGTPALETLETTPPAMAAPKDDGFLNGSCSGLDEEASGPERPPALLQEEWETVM
Experiment: Human bone cell (B10) adenylate cyclase assay
Type: cell-based
Experimental: HCF analogues were analyzed in a human osteosarcoma cell line, B10, for the ability to inhibit cAMP stimulation by 1 nM [Nle^8,18,Tyr^34 ]bPTH(1-34)NH2 by the method described by R. J. Majeska et al., Endocrinol., 107: 1494 (1980).

Ki [nM]	Compound
3.2 ± 1	CC[C@H](C)[C@H](NC(=O)[C@H](CC(C)C)NC(=O)[C@H](Cc1c[nH]cn1)NC(=O)[C@H](Cc1c[nH]cn1)NC(=O)[C@H](CC(C)C)NC(=O)[C@H](Cc1ccccc1)NC(=O)[C@H](Cc1ccccc1)NC(=O)[C@H](CCCNC(=N)N)NC(=O)[C@H](CCCNC(=N)N)NC(=O)[C@H](CCCNC(=N)N)NC(=O)[C@H](CC(C)C)NC(=O)[C@@H]1CC(=O)NCCCC[C@H](NC(=O)[C@@H](Cc2c[nH]c3ccccc23)NC(=O)[C@H](CC(C)C)NC(=O)[C@H](CC(=O)O)NC(=O)[C@H](Cc2c[nH]cn2)NC(=O)[C@H](CC(C)C)NC(=O)[C@@H](N)CC(C)C)C(=O)N[C@@H](CO)C(=O)N[C@@H]([C@@H](C)CC)C(=O)N[C@@H](CCC(N)=O)C(=O)N1)C(=O)N[C@@H](C)C(=O)N[C@@H](CCC(=O)O)C(=O)N[C@H](C(=O)N[C@@H](Cc1c[nH]cn1)C(=O)N[C@H](C(=O)N[C@@H](C)C(N)=O)[C@@H](C)O)[C@@H](C)CC
3.6 ± 0.8	CC[C@H](C)[C@H](NC(=O)[C@H](CC(C)C)NC(=O)[C@H](Cc1c[nH]cn1)NC(=O)[C@H](Cc1c[nH]cn1)NC(=O)[C@H](CC(C)C)NC(=O)[C@H](Cc1ccccc1)NC(=O)[C@H](Cc1ccccc1)NC(=O)[C@H](CCCNC(=N)N)NC(=O)[C@H](CCCNC(=N)N)NC(=O)[C@H](CCCNC(=N)N)NC(=O)[C@H](CC(C)C)NC(=O)[C@@H]1CC(=O)NCCCC[C@H](NC(=O)[C@@H](Cc2c[nH]c3ccccc23)NC(=O)[C@H](CC(C)C)NC(=O)[C@H](CC(=O)O)NC(C)=O)C(=O)N[C@@H](CO)C(=O)N[C@@H]([C@@H](C)CC)C(=O)N[C@@H](CCC(N)=O)C(=O)N1)C(=O)N[C@@H](C)C(=O)N[C@@H](CCC(=O)O)C(=O)N[C@H](C(=O)N[C@@H](Cc1c[nH]cn1)C(=O)N[C@H](C(=O)N[C@@H](C)C(N)=O)[C@@H](C)O)[C@@H](C)CC
